Laboratory results taken from patent US6897306B2, “3-heterocyclylpropanohydroxamic acids” (Pfizer Products, Inc., priority 1999, dated 2005).

Legend:
[1] = system: keratinocyte migration (MMP-1 dependent); conditions: collagen type I matrix in vitro; cited from earlier work

| Structure (SMILES) | melting point [°C] | inhibition of keratinocyte migration [1] |
| --- | --- | --- |
| O=C(C[C@@H](CCCC1CCCCC1)c1nc(C(=O)N2CC(N3CCOCC3)C2)no1)NO [Example 14, (3R)-6-Cyclohexyl-N-hydroxy-3-(3-{[3-(4-morpholinyl)-1-azetidinyl]carbonyl}-1,2,4-oxadiazol-5-yl)hexanamide] | 52 to 63 |  |
| CNC(=O)[C@H](Cc1ccc(OC)cc1)NC(=O)[C@@H](CC(=O)NO)CC(C)C [SC44463] |  | completely inhibited |
